Measurements reported in ChEMBL document CHEMBL1153012, “Synthesis and antibacterial activity of novel 5-(4-methyl-1H-1,2,3-triazole) methyl oxazolidinones” (2009).
Converted amounts (≈) assume the structure as drawn.

Experiments:
Type in all cases: functional
[1] = system: Haemophilus influenzae; assay: Antibacterial activity against Haemophilus influenzae isolate 283 by agar dilution method
[2] = system: Enterococcus; assay: Antibacterial activity against vancomycin-sensitive Enterococcus by agar dilution method
[3] = system: Streptococcus pneumoniae; assay: Antibacterial activity against Streptococcus pneumoniae by agar dilution method
[4] = system: Staphylococcus aureus; assay: Antibacterial activity against Staphylococcus aureus ATCC 25923 by agar dilution method in presence of human plasma; settings: ATCC 25923, Plasma
[5] = system: Enterococcus; assay: Antibacterial activity against vancomycin-resistant Enterococcus by agar dilution method
[6] = system: Staphylococcus aureus; assay: Antibacterial activity against Staphylococcus aureus ATCC 25923 by agar dilution method
[7] = system: Staphylococcus; assay: Antibacterial activity against methicillin resistant coagulase-negative Staphylococcus by agar dilution method
[8] = system: Moraxella catarrhalis; assay: Antibacterial activity against Moraxella catarrhalis by agar dilution method
[9] = system: Escherichia coli; assay: Antibacterial activity against Escherichia coli ATCC 25922 by agar dilution method
[10] = system: Staphylococcus; assay: Antibacterial activity against methicillin-sensitive coagulase-negative Staphylococcus by agar dilution method
[11] = system: Haemophilus influenzae; assay: Antibacterial activity against Haemophilus influenzae isolate 280 by agar dilution method
[12] = system: Staphylococcus aureus; assay: Antibacterial activity against methicillin-resistant Staphylococcus aureus by agar dilution method
[13] = system: Haemophilus influenzae; assay: Antibacterial activity against Haemophilus influenzae isolate 282 by agar dilution method
[14] = system: Haemophilus influenzae; assay: Antibacterial activity against Haemophilus influenzae ATCC 49247 by agar dilution method
[15] = system: Haemophilus influenzae; assay: Antibacterial activity against Haemophilus influenzae isolate 285 by agar dilution method
[16] = system: Staphylococcus aureus; assay: Antibacterial activity against methicillin-susceptible Staphylococcus aureus by agar dilution method

Compound | MIC [1] [µg/mL] | MIC [2] [µg/mL] | MIC [3] [µg/mL] | MIC [4] [µg/mL] | MIC [5] [µg/mL] | MIC [6] [µg/mL] | MIC [7] [µg/mL] | MIC [8] [µg/mL] | MIC [9] [µg/mL] | MIC [10] [µg/mL] | MIC [11] [µg/mL] | MIC [12] [µg/mL] | MIC [13] [µg/mL] | MIC [14] [µg/mL] | MIC [15] [µg/mL] | MIC [16] [µg/mL]
CCCCC(=O)N1CCN(c2ccc(N3C[C@H](Cn4cc(C)nn4)OC3=O)cc2F)CC1 | 64 (≈ 144 µM) | 1 (≈ 2.25 µM) | 2 (≈ 4.5 µM) | 32 | 1 (≈ 2.25 µM) | 2 (≈ 4.5 µM) | 1 (≈ 2.25 µM) | 16 (≈ 36 µM) | > 64 | 1 (≈ 2.25 µM) | 64 (≈ 144 µM) | 1 (≈ 2.25 µM) | 64 (≈ 144 µM) | 64 (≈ 144 µM) | 64 (≈ 144 µM) | 1 (≈ 2.25 µM)
Cc1cn(C[C@H]2CN(c3ccc(N4CCN(C(=O)C(Cl)(Cl)Cl)CC4)c(F)c3)C(=O)O2)nn1 | > 64 | 1 (≈ 1.98 µM) | 4 (≈ 7.91 µM) | 16 | 1 (≈ 1.98 µM) | 1 (≈ 1.98 µM) | 1 (≈ 1.98 µM) | 32 (≈ 63.3 µM) | > 64 | 1 (≈ 1.98 µM) | > 64 | 1 (≈ 1.98 µM) | > 64 | > 64 | > 64 | 1 (≈ 1.98 µM)
CCOC(=O)N1CCN(c2ccc(N3C[C@H](Cn4cc(C)nn4)OC3=O)cc2F)CC1 | 64 (≈ 148 µM) | 1 (≈ 2.31 µM) | 4 (≈ 9.25 µM) | 32 | 1 (≈ 2.31 µM) | 1 (≈ 2.31 µM) | 1 (≈ 2.31 µM) | 16 (≈ 37 µM) | > 64 | 1 (≈ 2.31 µM) | 64 (≈ 148 µM) | 1 (≈ 2.31 µM) | 64 (≈ 148 µM) | 64 (≈ 148 µM) | 64 (≈ 148 µM) | 1 (≈ 2.31 µM)
O=C1O[C@@H](Cn2ccnn2)CN1c1ccc(N2CCOCC2)c(F)c1 | 32 (≈ 92.1 µM) | 0.5 (≈ 1.44 µM) | 0.5 (≈ 1.44 µM) | 1 | 1 (≈ 2.88 µM) | 1 (≈ 2.88 µM) | 0.5 (≈ 1.44 µM) | > 16 | > 64 | 0.5 (≈ 1.44 µM) | 32 (≈ 92.1 µM) | 0.5 (≈ 1.44 µM) | 32 (≈ 92.1 µM) | 32 (≈ 92.1 µM) | 32 (≈ 92.1 µM) | 0.5 (≈ 1.44 µM)
Cc1cn(C[C@H]2CN(c3ccc(N4CCN(C(=O)CC(C)C)CC4)c(F)c3)C(=O)O2)nn1 | > 64 | 2 (≈ 4.5 µM) | 4 (≈ 9 µM) | 32 | 4 (≈ 9 µM) | 4 (≈ 9 µM) | 2 (≈ 4.5 µM) | 32 (≈ 72 µM) | > 64 | 2 (≈ 4.5 µM) | > 64 | 2 (≈ 4.5 µM) | > 64 | 64 (≈ 144 µM) | > 64 | 2 (≈ 4.5 µM)
CCCCCC(=O)N1CCN(c2ccc(N3C[C@H](Cn4cc(C)nn4)OC3=O)cc2F)CC1 | > 64 | 2 (≈ 4.36 µM) | 8 (≈ 17.4 µM) | > 64 | 2 (≈ 4.36 µM) | 4 (≈ 8.72 µM) | 2 (≈ 4.36 µM) | > 64 | > 64 | 2 (≈ 4.36 µM) | > 64 | 4 (≈ 8.72 µM) | > 64 | > 64 | > 64 | 2 (≈ 4.36 µM)
CCC(=O)N1CCN(c2ccc(N3C[C@H](Cn4cc(C)nn4)OC3=O)cc2F)CC1 | 32 (≈ 76.8 µM) | 1 (≈ 2.4 µM) | 1 (≈ 2.4 µM) | 8 | 1 (≈ 2.4 µM) | 2 (≈ 4.8 µM) | 1 (≈ 2.4 µM) | 16 (≈ 38.4 µM) | > 64 | 1 (≈ 2.4 µM) | 32 (≈ 76.8 µM) | 1 (≈ 2.4 µM) | 32 (≈ 76.8 µM) | 32 (≈ 76.8 µM) | 32 (≈ 76.8 µM) | 1 (≈ 2.4 µM)
Cc1cn(C[C@H]2CN(c3ccc(N4CCN(C(=O)C5CCCC5)CC4)c(F)c3)C(=O)O2)nn1 | 32 (≈ 70.1 µM) | 2 (≈ 4.38 µM) | 4 (≈ 8.76 µM) | 32 | 2 (≈ 4.38 µM) | 4 (≈ 8.76 µM) | 2 (≈ 4.38 µM) | 32 (≈ 70.1 µM) | > 64 | 2 (≈ 4.38 µM) | 32 (≈ 70.1 µM) | 2 (≈ 4.38 µM) | 32 (≈ 70.1 µM) | 32 (≈ 70.1 µM) | 32 (≈ 70.1 µM) | 2 (≈ 4.38 µM)
Cc1cn(C[C@H]2CN(c3ccc(N4CCN(C(=O)c5ccccc5)CC4)c(F)c3)C(=O)O2)nn1 | > 64 | 1 (≈ 2.15 µM) | 4 (≈ 8.61 µM) | 32 | 1 (≈ 2.15 µM) | 2 (≈ 4.31 µM) | 1 (≈ 2.15 µM) | 32 (≈ 68.9 µM) | > 64 | 1 (≈ 2.15 µM) | > 64 | 1 (≈ 2.15 µM) | > 64 | > 64 | > 64 | 1 (≈ 2.15 µM)
CC(=O)NC[C@H]1CN(c2ccc(N3CCOCC3)c(F)c2)C(=O)O1 [LINEZOLID] | 16 (≈ 47.4 µM) | 0.5 (≈ 1.48 µM) |  |  | 0.5 (≈ 1.48 µM) |  | 0.5 (≈ 1.48 µM) | 8 (≈ 23.7 µM) | > 64 | 0.5 (≈ 1.48 µM) | 8 (≈ 23.7 µM) | 0.5 (≈ 1.48 µM) | 16 (≈ 47.4 µM) | 8 (≈ 23.7 µM) | 8 (≈ 23.7 µM) | 0.5 (≈ 1.48 µM)
